# Source: patent US6391871B1 (priority 1996, dated 2002)
# Entries after “also recorded” stand apart in the source; their conditions may differ. Read-outs that look alike come from different tables or passages of the source.
# Tests used:
# NMDA receptors = type: cell-based, chick
# Experimental: Potency rating=minimum concentration required to provide total protection against neurotoxic effects of NMDA (40 μM) in chick embryo retinal tissue tests
# These experiments were performed using segments of chick embryo retina. This is a widely used model for studying the production and prevention of excitotoxic phenomena, since it is a simple and inexpensive preparation, and since chick tissue provides a better model of adult mammalian neurons than embryonic or juvenile mammalian tissue. All of the glutamate receptors that mediate excitotoxic phenomena are present in chick retinas, and are sensitive to excitotoxic stimulation. By contrast, in embryonic or juvenile mammalian tissue, various glutamate receptors are not fully matured and are not responsive in the same ways that occur in adult mammalian tissue.
# In these tests, NMDA is introduced into the incubation medium in a concentration ([…]) sufficient to produce a fully developed excitotoxic lesion within 30 min, displaying acute degeneration and necrosis of the majority of neurons in the inner layers of the retina. The control retinas are incubated with NMDA alone, and experimental retinas are incubated with NMDA plus a test compound that is being evaluated for NMDA antagonist properties. […] All agents that prevent NMDA from hyperactivating NMDA receptors and thereby inducing an excitotoxic neurodegenerative reaction in the chick embryo retina are considered appropriate candidate drugs for preventing NMDA receptor hyperactivation and NMDA receptor burnout in the presymptomatic stages of Alzheimer's disease.
# The concentration of the test compound required to prevent NMDA from inducing neuronal degeneration in the chick retina tissue is considered a measure of its expected potency for preventing NMDA receptor hyperactivation and NMDA receptor burnout in the presymptomatic stages of Alzheimer's disease.
# vacuolated PC/RS neurons = experiment: Safener assay: prevention of MK-801-induced vacuole formation in PC/RS neurons; details: for ED50: 4 h; for blocking of MK-801 neurotoxicity / vacuole formation: tested against MK-801
# Experimental: For each test agent, at least 5 dosages of the candidate safener agent were tested, and at least 4 rats were used in each dosage group.
# The rats were sacrificed four hours after treatment, for histopathological evaluation. The number of vacuolated PC/RS neurons were counted on each side of the brain, at a rostrocaudal level immediately posterior to where the corpus callosum ceases decussating across the midline (approximately 5.6 mm caudal to bregma).
# The result was subtracted from one and multiplied by 100, to calculate a percentage.
# The confidence limits, in the right column, were the safener dosages that reduced vacuoles by 25% and 75%.
# sigma receptors = details: cited from earlier work
# [1] = test system: pyramidal neurons in layers III and IV of the posterior cingulate and retrosplenial (PC/RS) cortices; details: rat, in vivo; for neurotoxic (vacuole) reaction in PC/RS cortex, drug by itself: ip
# [2] = test system: pyramidal neurons in layers III and IV of the posterior cingulate and retrosplenial (PC/RS) cortices; experiment: In vivo assay of toxic side effects of NMDA antagonists (vacuole formation in PC/RS cortex)
# [3] = test system: NMDA receptors in the hypothalamus; experiment: NMDA receptor hyperactivation in the hypothalamic-pituitary neuroendocrine regulatory system; details: for damage to the reproductive regulatory (NMDA receptor) system: high dose, rats
# Experimental: The explanation for this is that normally, neurons in the hypothalamus that have NMDA receptors on their surface are activated by the excitatory transmitter, glutamate, which causes them to send a message to the pituitary resulting in pituitary release of LH. When NMDA is administered, it enters the hypothalamus and mimics glutamate by acting at the same NMDA receptors that glutamate would activate. This triggers the same sequence of events that glutamate would normally trigger. The action of glutamate at these NMDA receptors represents a physiological mechanism by which glutamate normally regulates the amount of reproductive hormones (e.g., LH) that circulate in the blood. For a detailed review describing this neuroendocrine regulatory system, see Olney and Price 1978.
# These excitotoxic molecules (NMDA or glutamate) enter the hypothalamus and hyperactivate NMDA receptors so vigorously and continuously that it destroys the NMDA receptor system, and leaves it permanently unresponsive to subsequent stimulation, either by exogenously administered NMDA, or by endogenous glutamate.
# Affected animals develop a neuroendocrine deficiency syndrome, which leads to symptoms such as obesity, sterility, and ongoing degeneration of their reproductive organs.
# cerebrocortical neurons = details: Olney et al 1989, Corso et al 1994; cited from earlier work
# [4] = test system: neurons in neocortical and limbic brain regions; experiment: Histopathology of rat brain after PCP/pilocarpine treatment; type: in vivo; details: even at very high dosages
# Experimental: Adult female rats were injected subcutaneously with an NMDA antagonist drug, phencyclidine (PCP), at 50 milligrams of drug per kilogram of body weight (mg/kg sc), accompanied by a small dose of a muscarinic agonist, pilocarpine (10 mg/kg sc). At various times (4, 16, 24, 48, 72 and 96 hours) after treatment, the rats were anesthetized and perfused with fixative to allow their brains to be prepared for histological evaluation.
# Degenerating neurons in various brain regions were also examined by electron microscopy, to obtain evidence for loss of synaptic complexes, and a computer-assisted cell plotting system was used to plot the location and count the frequency with which degenerating neurons were found in each brain region.
# Massive loss of neurons throughout many neocortical and limbic brain regions is a hallmark characteristic of Alzheimer's disease. To establish that the NR/hypo mechanism results not only in cell injury but in cell death, the Applicants systematically examined the brains of rats 4 days following PCP/pilocarpine treatment. Sections prepared at 1 millimeter intervals from one side of the brain were stained, using hematoxylin and eosin; sections prepared at 1 millimeter intervals from the other side of the brain were stained using a silver impregnation stain. […]
# [5] = NMDA 40 μM, chick embryo retinal tissue
# [6] = dose reducing mean number of vacuolated PC/RS neurons to 50% of MK-801 (0.5 mg/kg sc) controls, rats
compound,measurement,setting,value
"O=C(O)c1cc(O)c2ccc(Cl)cc2n1 [7-CL-Kynurenic acid, 7-chloro-kynurenic acid]",POTENCY RATING = minimum concentration required to provide total protection against neurotoxic effects of NMDA,NMDA receptors,50 µM
CN1[C@@H]2CC[C@H]1C[C@@H](OC(c1ccccc1)c1ccccc1)C2 [Benztropine],ED50,"vacuolated PC/RS neurons; Rattus norvegicus, Neuron, sc",1.29 mg/kg
O=C(O)[C@@H]1C[C@H](CP(=O)(O)O)CCN1 [CGS 19755],POTENCY RATING = minimum concentration required to provide total protection against neurotoxic effects of NMDA,NMDA receptors; [5],5 µM
N#Cc1cc2[nH]c(=O)c(=O)[nH]c2cc1[N+](=O)[O-] [CNQX],POTENCY RATING = minimum concentration required to provide total protection against neurotoxic effects of NMDA,NMDA receptors,200 µM
O=C(O)C1CN(CCCP(=O)(O)O)CCN1 (stereo not drawn) [CPP],POTENCY RATING = minimum concentration required to provide total protection against neurotoxic effects of NMDA,NMDA receptors; [5],10 µM
Clc1cccc(Cl)c1N=C1NCCN1 [Clonidine],ED50,"vacuolated PC/RS neurons; Rattus norvegicus, Neuron, sc",0.044 mg/kg
CN1CCN(C2=Nc3cc(Cl)ccc3Nc3ccccc32)CC1 [Clozapine],ED50,"vacuolated PC/RS neurons; Rattus norvegicus, Neuron, sc",2.8 mg/kg
"N[C@H](CCCP(=O)(O)O)C(=O)O [D-AP5, D-2-amino-5-phosphonopentanoic acid]",POTENCY RATING = minimum concentration required to provide total protection against neurotoxic effects of NMDA,NMDA receptors; [5],25 µM
O=[N+]([O-])c1cc2nc(O)c(O)nc2cc1[N+](=O)[O-] [DNQX],POTENCY RATING = minimum concentration required to provide total protection against neurotoxic effects of NMDA,NMDA receptors; [5],100 µM
COc1cc(CC(C)N)c(OC)cc1Br (stereo not drawn) [DOB],ED50,vacuolated PC/RS neurons; [6],"0.36 mg/kg, ip"
COc1cc(CC(C)N)c(OC)cc1I (stereo not drawn) [DOI],ED50,vacuolated PC/RS neurons; [6],"1.05 mg/kg, ip"
COc1ccc2c(c1)[C@]13CCCC[C@@H]1[C@H](C2)N(C)CC3 [Dextromethorphan],POTENCY RATING = minimum concentration required to provide total protection against neurotoxic effects of NMDA,NMDA receptors; [5],25 µM
CN1C(=O)CN=C(c2ccccc2)c2cc(Cl)ccc21 [Diazepam],ED50,"vacuolated PC/RS neurons; Rattus norvegicus, Neuron, sc",1 mg/kg
OC(CN1CCC(Cc2ccc(F)cc2)CC1)c1ccc(Cl)cc1 (stereo not drawn) [Eliprodil],NMDA antagonist properties in the chick retina assay,NMDA receptors,definite NMDA antagonist properties
same,POTENCY RATING = minimum concentration required to provide total protection against neurotoxic effects of NMDA,NMDA receptors,30 µM
same,binding at sigma receptors,sigma receptors,strong binding activity at sigma receptors
same,"neurotoxic (vacuole) reaction in PC/RS cortex, drug by itself","[1]; female, Sprague Dawley, 4 h","neither SKF (+)10,047 by itself, nor eliprodil by itself, caused a vacuole reaction"
same,neurotoxic reaction in the PC/RS cortex at the highest dose tested,[1],did not cause a neurotoxic reaction
same,"neurotoxic (vacuole) reaction in PC/RS cortex, drug by itself",[1],did not cause this neurotoxic reaction
same,nearly a lethal dose (highest dose tested),[2]; rats,100 mg/kg/ip
CN1CCN(C2=Nc3cc(F)ccc3Cc3ccccc32)CC1 [Fluperlapine],ED50,"vacuolated PC/RS neurons; Rattus norvegicus, Neuron, sc",2.4 mg/kg
N=C(N)N/N=C/c1c(Cl)cccc1Cl [Guanabenz],ED50,"vacuolated PC/RS neurons; Rattus norvegicus, Neuron, sc",0.21 mg/kg
O=C(CCCN1CCC(O)(c2ccc(Cl)cc2)CC1)c1ccc(F)cc1 [Haloperidiol],ED50,"vacuolated PC/RS neurons; Rattus norvegicus, Neuron, sc",5.1 mg/kg
CC(C(O)c1ccc(O)cc1)N1CCC(Cc2ccccc2)CC1 (stereo not drawn) [Ifenprodil],POTENCY RATING = minimum concentration required to provide total protection against neurotoxic effects of NMDA,NMDA receptors,50 µM
CCN(CC)C(=O)N[C@H]1C=C2c3cccc4[nH]cc(c34)C[C@H]2N(C)C1 [Lisuride],blocking of MK-801 neurotoxicity / vacuole formation,vacuolated PC/RS neurons,block MK-801 toxicity
CC(Oc1c(Cl)cccc1Cl)C1=NCCN1 (stereo not drawn) [Lofexidine],ED50,"vacuolated PC/RS neurons; Rattus norvegicus, Neuron, sc",0.38 mg/kg
"C[C@]12N[C@H](Cc3ccccc31)c1ccccc12 [MK-801, (+)-5-methyl-10,11-dihydro-5H-di[a,d]-cyclohepten-5,10-imine]",POTENCY RATING = minimum concentration required to provide total protection against neurotoxic effects of NMDA,NMDA receptors,[…]
same,neurotoxic reaction induced by MK-801,"vacuolated PC/RS neurons; MK-801 0.5 mg/kg sc, all treated rats",fully developed neurotoxic reaction
"CN[C@H](CC(=O)O)C(=O)O [NMDA, n-methyl-D-aspartate]",pituitary secretion of reproductive hormones (LH),"[3]; NMDA subcutaneously or intravenously, rodents",causing the pituitary gland to secrete into the blood certain reproductive hormones such as luteinizing hormone
same,damage to the reproductive regulatory (NMDA receptor) system,[3],permanently damage and inactivate this reproductive regulatory system
Cc1cc2c(s1)Nc1ccccc1N=C2N1CCN(C)CC1 [Olanzapine],ED50,"vacuolated PC/RS neurons; Rattus norvegicus, Neuron, sc",0.6 mg/kg
CCCC(C)C1(CC)C(=O)NC(=O)NC1=O (stereo not drawn) [Pentobarbital],ED50,"vacuolated PC/RS neurons; Rattus norvegicus, Neuron, sc",13.1 mg/kg
OC(CCN1CCCC1)(c1ccccc1)C1CCCCC1 (stereo not drawn) [Procyclidine],POTENCY RATING = minimum concentration required to provide total protection against neurotoxic effects of NMDA,NMDA receptors; [5],15 µM
C[C@@H]1CN(CCCn2c3ccccc3c3ccccc32)C[C@H](C)N1 [Rimcazole],ED50,"vacuolated PC/RS neurons; Rattus norvegicus, Neuron, sc",17.8 mg/kg
"C=CCN1CC[C@]2(C)c3cc(O)ccc3C[C@H]1[C@H]2C [SKF (+)10,047]","neurotoxic (vacuole) reaction in PC/RS cortex, drug by itself","[2]; adult female rats, ip, sacrificed four hours after treatment","neither SKF (+)10,047 by itself, nor eliprodil by itself, caused a vacuole reaction; also recorded: neither SKF (+)10,047 nor ibogaine by itself caused vacuoles"
CN1[C@@H]2C[C@@H](OC(=O)[C@H](CO)c3ccccc3)C[C@H]1[C@@H]1O[C@@H]12 [Scopolamine],ED50,"vacuolated PC/RS neurons; Rattus norvegicus, Neuron, sc",0.13 mg/kg
C=CCC1(C(C)CCC)C(=O)NC(=O)NC1=O (stereo not drawn) [Secobarbital],ED50,"vacuolated PC/RS neurons; Rattus norvegicus, Neuron, sc",15.3 mg/kg
CSc1ccc2c(c1)N(CCC1CCCCN1C)c1ccccc1S2 (stereo not drawn) [Thioridazine],ED50,"vacuolated PC/RS neurons; Rattus norvegicus, Neuron, sc",55.3 mg/kg
CCNC1(c2cccs2)CCCCC1=O (stereo not drawn) [Tiletamine],POTENCY RATING = minimum concentration required to provide total protection against neurotoxic effects of NMDA,NMDA receptors; [5],5 µM
same,pathological changes in cerebral cortex / corticolimbic regions of adult rats,cerebrocortical neurons,cause pathological changes in the cerebral cortex of adult rats
OC(CCN1CCCCC1)(c1ccccc1)C1CCCCC1 (stereo not drawn) [Trihexyphenidyl],ED50,"vacuolated PC/RS neurons; Rattus norvegicus, Neuron, sc",2.14 mg/kg
same,binding at sigma receptors,sigma receptors,"strong binding affinity not only to muscarinic receptors, but also to sigma receptors"
N[C@@H](CCC(=O)O)C(=O)O [glutamate],damage to the reproductive regulatory (NMDA receptor) system,[3],permanently damage and inactivate this reproductive regulatory system
FC(F)(F)C(Cl)Br (stereo not drawn) [halothane],blocking of MK-801 neurotoxicity / vacuole formation,vacuolated PC/RS neurons,effectively block vacuole formation
FC(F)OC(Cl)C(F)(F)F (stereo not drawn) [isoflurane],blocking of MK-801 neurotoxicity / vacuole formation,vacuolated PC/RS neurons,effectively block vacuole formation
Clc1cc(I)cc(Cl)c1NC1=NCCN1 [p-Iodoclonidine],ED50,vacuolated PC/RS neurons; [6],"1.3 mg/kg, ip"
CC[C@@H]1C(=O)OC[C@@H]1Cc1cncn1C [pilocarpine],brain damage by pilocarpine by itself,[4],does not and cannot cause the type of damage observed in these tests
CC(C)c1cccc(C(C)C)c1O [propofol],blocking of MK-801 neurotoxicity / vacuole formation,vacuolated PC/RS neurons,effectively block vacuole formation
Ibogaine,NMDA antagonist properties in the chick retina assay,NMDA receptors,definite NMDA antagonist properties
same,POTENCY RATING = minimum concentration required to provide total protection against neurotoxic effects of NMDA,NMDA receptors; [5],15 µM
same,binding at sigma receptors,sigma receptors,strong binding affinity at sigma receptors
